Laboratory results as given in US12662491B2 (Redona Therapeutics, Inc., priority 2020, dated 2026).

The molecules below were run against T1, Zcchc11 enzyme (Homo sapiens, UniProt Q5TAX3) (assay: TUTase assay (Zcchc11 assay, Lin28a-dependent polyuridylation of pre-let-7)). Conditions: Lin28a-dependent Zcchc11 (Z11) TUTase assay; read-out: Potency Lin28a-dep Z11 IC50.
T1 construct: made in house; host or cells: HEK293 cells (Zcchc11); E. coli Rosetta II (LIN28A)
T1 sequence (Q5TAX3 212-1420): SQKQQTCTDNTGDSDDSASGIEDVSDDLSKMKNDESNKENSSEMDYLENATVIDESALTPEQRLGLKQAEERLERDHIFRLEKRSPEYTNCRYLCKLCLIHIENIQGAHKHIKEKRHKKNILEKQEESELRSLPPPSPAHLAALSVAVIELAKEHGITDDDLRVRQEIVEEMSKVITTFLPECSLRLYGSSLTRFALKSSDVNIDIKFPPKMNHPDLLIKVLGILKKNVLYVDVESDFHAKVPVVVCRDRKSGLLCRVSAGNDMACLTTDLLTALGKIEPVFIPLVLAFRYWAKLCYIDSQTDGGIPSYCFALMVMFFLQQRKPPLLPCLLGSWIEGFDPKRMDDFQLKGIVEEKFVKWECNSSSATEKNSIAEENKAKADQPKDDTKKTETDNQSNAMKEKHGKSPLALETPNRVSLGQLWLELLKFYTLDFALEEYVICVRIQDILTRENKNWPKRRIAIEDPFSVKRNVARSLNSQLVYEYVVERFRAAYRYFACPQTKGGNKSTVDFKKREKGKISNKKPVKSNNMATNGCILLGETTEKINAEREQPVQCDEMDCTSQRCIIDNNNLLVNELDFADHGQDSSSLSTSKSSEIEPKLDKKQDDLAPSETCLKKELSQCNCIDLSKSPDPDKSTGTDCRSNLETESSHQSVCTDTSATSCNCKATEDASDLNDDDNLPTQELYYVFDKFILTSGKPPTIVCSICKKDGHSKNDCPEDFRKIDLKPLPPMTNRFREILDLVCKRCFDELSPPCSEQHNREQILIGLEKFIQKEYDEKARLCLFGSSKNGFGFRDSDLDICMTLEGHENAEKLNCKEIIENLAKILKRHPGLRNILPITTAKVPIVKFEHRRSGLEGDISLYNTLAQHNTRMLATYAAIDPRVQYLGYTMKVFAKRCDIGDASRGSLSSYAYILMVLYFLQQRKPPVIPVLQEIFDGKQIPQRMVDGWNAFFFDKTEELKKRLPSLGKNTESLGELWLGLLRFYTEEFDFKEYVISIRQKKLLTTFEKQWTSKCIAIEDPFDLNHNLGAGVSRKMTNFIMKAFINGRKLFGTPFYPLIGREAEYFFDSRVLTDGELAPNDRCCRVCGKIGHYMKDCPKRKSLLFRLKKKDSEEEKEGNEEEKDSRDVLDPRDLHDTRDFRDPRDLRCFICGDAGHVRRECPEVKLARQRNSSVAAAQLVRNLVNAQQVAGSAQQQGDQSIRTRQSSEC
Format: biochemical
Procedure, shortened: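 HEK293-expressed human Zcchc11 (residues 212-1420, 0.2 nM) with 10 nM LIN28A and 2 nM 5′-fluorescein pre-let-7, preincubated 30 min at room temperature, pH 7.3. Started with 5 uM UTP; poly(U) tails quenched by 3′-rhodamine A20 probe, read kinetically. IC50 from early-rate four-parameter fit; no-UTP wells define 0%.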
Work on `COc1ccc(Cl)c(OC[C@H]2CC(C)(O)CN2c2cc3c(cc2Cl)c(=O)c(C(=O)O)cn3-c2ccc(N3CC(N(C)C)C3)nc2)n1` (stereo partly drawn) [Example 643, 6-chloro-7-((2R)-2-(((3-chloro-6-methoxypyridin-2-yl)oxy)methyl)-4-hydroxy-4-methylpyrrolidin-1-yl)-1-(6-(3-(dimethylamino)azetidin-1-yl)pyridin-3-yl)-4-oxo-1,4-dihydroquinoline-3-carboxylic acid] yielded an IC50 of no more than 1 µM.
`COc1ccc(Cl)c(OC[C@H]2CCCN2c2cc3c(cc2Cl)c(=O)c(C(=O)O)cn3-c2ccnc(N)c2)n1` [Example 644, (R)-1-(2-aminopyridin-4-yl)-6-chloro-7-(2-(((3-chloro-6-methoxypyridin-2-yl)oxy)methyl)pyrrolidin-1-yl)-4-oxo-1,4-dihydroquinoline-3-carboxylic acid] gave an IC50 of no more than 1 µM.
Work on `CN(C)C1CN(c2ccc(-n3cc(C(=O)O)c(=O)c4cc(Cl)c(N5CCC[C@@H]5COc5nc6c(ccn6C)cc5Cl)cc43)cn2)C1` [Example 645, (R)-6-chloro-7-(2-(((5-chloro-1-methyl-1H-pyrrolo[2,3-b]pyridin-6-yl)oxy)methyl)pyrrolidin-1-yl)-1-(6-(3-(dimethylamino)azetidin-1-yl)pyridin-3-yl)-4-oxo-1,4-dihydroquinoline-3-carboxylic acid] yielded an IC50 of no more than 1 µM.
`COc1ccc(Cl)c(OC[C@H]2CCCN2c2cc3c(cc2F)c(=O)c(C(=O)O)cn3-c2cnnc(N)c2)n1` [Example 646, (R)-1-(6-aminopyridazin-4-yl)-7-(2-(((3-chloro-6-methoxypyridin-2-yl)oxy)methyl)pyrrolidin-1-yl)-6-fluoro-4-oxo-1,4-dihydroquinoline-3-carboxylic acid] showed an IC50 of no more than 1 µM.
Molecule `Nc1ccc(-n2cc(C(=O)O)c(=O)c3cc(Cl)c(N4CCC[C@@H]4COc4nc(OC5CC5)ccc4Cl)cc32)cn1` [Example 647, (R)-1-(6-aminopyridin-3-yl)-6-chloro-7-(2-(((3-chloro-6-cyclopropoxy-pyridin-2-yl)oxy)methyl)pyrrolidin-1-yl)-4-oxo-1,4-dihydroquinoline-3-carboxylic acid] has an IC50 of no more than 1 µM.
In the case of `COc1ccc(Cl)c(OC[C@H]2CC(C)(C)CN2c2cc3c(cc2Cl)c(=O)c(C(=O)O)cn3-c2ccc(N3CC(N(C)C)C3)nc2)n1` [Example 648, (R)-6-chloro-7-(2-(((3-chloro-6-methoxypyridin-2-yl)oxy)methyl)-4,4-dimethylpyrrolidin-1-yl)-1-(6-(3-(dimethylamino)azetidin-1-yl)pyridin-3-yl)-4-oxo-1,4-dihydroquinoline-3-carboxylic acid], the IC50 is reported as no more than 1 µM.
For `COc1ccc(Cl)c(OC[C@H]2CC(C)(C)CN2c2cc3c(cc2Cl)c(=O)c(C(=O)O)cn3-c2ccc(N)nc2)n1` [Example 649, (R)-1-(6-aminopyridin-3-yl)-6-chloro-7-(2-(((3-chloro-6-methoxypyridin-2-yl)oxy)methyl)-4,4-dimethylpyrrolidin-1-yl)-4-oxo-1,4-dihydroquinoline-3-carboxylic acid], the IC50 was no more than 1 µM.
In the case of `COc1ccc(Cl)c(OC[C@H]2CC(C)(C)CN2c2cc3c(cc2Cl)c(=O)c(C(=O)O)cn3-c2ccnc(N)c2)n1` [Example 650, (R)-1-(2-aminopyridin-4-yl)-6-chloro-7-(2-(((3-chloro-6-methoxypyridin-2-yl)oxy)methyl)-4,4-dimethylpyrrolidin-1-yl)-4-oxo-1,4-dihydroquinoline-3-carboxylic acid], the IC50 is reported as no more than 1 µM.
Molecule `COc1cnc(OC[C@H]2CC3CC3N2c2cc3c(cc2Cl)c(=O)c(C(=O)O)cn3-c2ccc(N)nc2)c(Cl)c1` (stereo partly drawn) [Example 651, 1-(6-aminopyridin-3-yl)-6-chloro-7-((3R)-3-(((3-chloro-5-methoxypyridin-2-yl)oxy)methyl)-2-azabicyclo[3.1.0]hexan-2-yl)-4-oxo-1,4-dihydroquinoline-3-carboxylic acid] has an IC50 of no more than 1 µM.
`CN(C)C1CN(c2ccc(-n3cc(C(=O)O)c(=O)c4cc(Cl)c(N5CCC[C@@H]5COc5nc6nc[nH]c6cc5Cl)cc43)cn2)C1` [Example 652, (R)-6-chloro-7-(2-(((6-chloro-3H-imidazo[4,5-b]pyridin-5-yl)oxy)methyl)pyrrolidin-1-yl)-1-(6-(3-(dimethylamino)azetidin-1-yl)pyridin-3-yl)-4-oxo-1,4-dihydroquinoline-3-carboxylic acid] gave an IC50 of no more than 1 µM.
In the case of `COc1cnc(OC[C@H]2CC3CC3N2c2cc3c(cc2Cl)c(=O)c(C(=O)O)cn3-c2ccnc(N)c2)c(Cl)c1` (stereo partly drawn) [Example 653, 1-(2-aminopyridin-4-yl)-6-chloro-7-((3R)-3-(((3-chloro-5-methoxypyridin-2-yl)oxy)methyl)-2-azabicyclo[3.1.0]hexan-2-yl)-4-oxo-1,4-dihydroquinoline-3-carboxylic acid], the IC50 is reported as no more than 1 µM.
`COc1ccc(Cl)c(OC[C@H]2CC3CC3N2c2cc3c(cc2Cl)c(=O)c(C(=O)O)cn3-c2ccc(N3CC(N(C)C)C3)nc2)n1` (stereo partly drawn) [Example 654, 6-chloro-7-((3R)-3-(((3-chloro-6-methoxypyridin-2-yl)oxy)methyl)-2-azabicyclo[3.1.0]hexan-2-yl)-1-(6-(3-(dimethylamino)azetidin-1-yl)pyridin-3-yl)-4-oxo-1,4-dihydroquinoline-3-carboxylic acid] showed an IC50 of no more than 1 µM.
Molecule `CN(C)c1ccc(Cl)c(OC[C@H]2CCCN2c2cc3c(cc2Cl)c(=O)c(C(=O)O)cn3-c2ccnc(N)c2)n1` [Example 655, (R)-1-(2-aminopyridin-4-yl)-6-chloro-7-(2-(((3-chloro-6-(dimethylamino)pyridin-2-yl)oxy)methyl)pyrrolidin-1-yl)-4-oxo-1,4-dihydroquinoline-3-carboxylic acid] has an IC50 of no more than 1 µM.
`COCCN(C)C1CN(c2ccc(-n3cc(C(=O)O)c(=O)c4cc(Cl)c(N5CCC[C@@H]5COc5nc(N(C)C)ccc5Cl)cc43)cn2)C1` [Example 657, (R)-6-chloro-7-(2-(((3-chloro-6-(dimethylamino)pyridin-2-yl)oxy)methyl)pyrrolidin-1-yl)-1-(6-(3-((2-methoxyethyl) (methyl)amino)azetidin-1-yl)pyridin-3-yl)-4-oxo-1,4-dihydroquinoline-3-carboxylic acid] was tested, and the IC50 was no more than 1 µM.
`CN(C)C1CN(c2ccc(-n3cc(C(=O)O)c(=O)c4cc(Cl)c(N5CCC[C@@H]5COc5nc(OC(C)(C)C)ccc5Cl)cc43)cn2)C1` [Example 658, (R)-7-(2-(((6-(tert-butoxy)-3-chloropyridin-2-yl)oxy)methyl)pyrrolidin-1-yl)-6-chloro-1-(6-(3-(dimethylamino)azetidin-1-yl)pyridin-3-yl)-4-oxo-1,4-dihydroquinoline-3-carboxylic acid] was tested, and the IC50 was no more than 1 µM.
For `COc1ccc(Cl)c(OC[C@H]2CCCN2c2cc3c(cc2C(F)(F)F)c(=O)c(C(=O)O)cn3-c2ccc(N3CC(N(C)C)C3)nc2)n1` [Example 659, (R)-7-(2-(((3-chloro-6-methoxypyridin-2-yl)oxy)methyl)pyrrolidin-1-yl)-1-(6-(3-(dimethylamino)azetidin-1-yl)pyridin-3-yl)-4-oxo-6-(trifluoromethyl)-1,4-dihydroquinoline-3-carboxylic acid], the IC50 was no more than 1 µM.
`COc1ccc(Cl)c(OC[C@H]2C[C@H]3C[C@H]3N2c2cc3c(cc2Cl)c(=O)c(C(=O)O)cn3-c2ccc(N3CC(N(C)C)C3)nc2)n1` [Example 660, 6-chloro-7-((1R,3R,5R)-3-(((3-chloro-6-methoxypyridin-2-yl)oxy)methyl)-2-azabicyclo[3.1.0]hexan-2-yl)-1-(6-(3-(dimethylamino)azetidin-1-yl)pyridin-3-yl)-4-oxo-1,4-dihydroquinoline-3-carboxylic acid] gave an IC50 of no more than 1 µM.
